Assay results taken from patent US10987319B2, “TFEB activator C1 ameliorates app and tau pathology and rescues cognitive deficits in neurodegenerative diseases” (Hong Kong Baptist University, priority 2018, dated 2021).

Tests used:
Format in all cases: in vivo
[1] = Pharmacokinetic study in mice, oral (brain and blood levels by LC/MS/MS); conditions: male, mouse, C57BL/6 mice, oral 10 mg/kg, brain
3×Tg mice = assay: Morris-water maze
Procedure: Homozygous 3×Tg mice (APP KM670/671NL (Swedish), MAPT P301L, PSEN1 M146V) were produced in Hong Kong Baptist University animal house and maintained at 23±2° C. temperature, 60±15% relative humidity with free access to food and water ad libitum. Seven months old WT (129/SvJ, n=6 for male mice; n=10 for female mice) and 3×Tg mice (n=6 for male mice; n=10 for female mice) were treated daily with vehicle (1% CMC-Na; Sigma-Aldrich, C5678]), curcumin analogue C1 (2.5 mg/kg, 5 mg/kg, 10 mg/kg) or curcumin (50 mg/kg; Sigma-Aldrich, 08511) suspended in 1% CMC-Na by oral gavage for 7 months. 3×Tg mice were treated with the indicated compounds for 7 months and Morris-water maze (MWM) was used to evaluate the spatial learning memory. MWM is a circular water (21±1° C.) container with 1 meter diameter. Animals were pre-quarantined and acclimatized to the experimenting room at least 1 week before the start of the experiment. The experiment was started with one day visual platform trial. Each mouse underwent 4 visible platform trails (each trial 60 seconds) with different platform placement, positioned above the water level. Hidden platform training was conducted after mixing a non-toxic paint in the water. Mice were trained for 6 continuous days, each day composed of different session with 4 hidden platform trials (each trial 60 seconds). Each session was designed with randomized animal introduction pattern into the water maze with unchanged platform position. Each trial was conducted with 30 min inter-trial interval and provided with external cues. To assess the long term spatial memory retrieval a probe trial (60 seconds) was conducted 24 h after the last training session. During probe trial water maze was divided into 4 quadrants. The hidden platform in the target quadrant was removed after determining its location. Ethnovision XT software was used to observe and record the swimming pattern. During hidden platform training sessions, time spent to find the platform was taken as a parameter to evaluate memory acquisition. In probe trial percentage of time spent in the target quadrant compared to the other 3 quadrants was calculated.

5×FAD mice = assay: Contextual fear conditioning
Procedure: Male 5×FAD mice were purchased from Jackson laboratories (Stock number 006554) and maintained at 23±2° C. temperature, 60±15% relative humidity with free access to food and water ad libitum. 5×FAD male mice were inbred with wild-type (WT, C57/BL6) female mice to produce heterozygous offspring. Offspring were genotyped to select 5×FAD (APP KM670/671NL (Swedish), APP I716V (Florida), APP V717I (London), PSEN1 M146L (A>C), PSEN1 L286V) gene mutations mice. Two months old WT and 5×FAD mice (male and female, n=10-14 per group) were treated daily with vehicle (1% sodium carbonyl methylcellulose [CMC-Na; Sigma-Aldrich, C5678]), curcumin analogue C1 (5 mg/kg, 10 mg/kg) or curcumin (50 mg/kg; Sigma-Aldrich, 08511) suspended in 1% CMC-Na by oral gavage for 4 months.
Contextual fear conditioning (CFC) was used to evaluate the fear memory reconsolidation of 5×FAD mice after treatment. The experiment was conducted 30 min after the drug treatment in ANY maze fear conditioning system under licensed ANY maze tracking system connected to a Windows XP computer. A digital camera was installed on each chamber and signals were sent to the computer for analysis. The experiments were conducted in two sound proof chambers. All the experiments were conducted with continuous 40 units of white noise and 40 lux white light. During training, mice were allowed to explore the platform for 2.5 min and then received 3 repeated footshock cycles (30 s) at 30 s intervals, each started with a cue tone (28 s, 1500 Hz) and ended by a footshock ([…], 2 s). On the second day the mice were allowed to explore the platform for 3 min followed by a cue tone (30 s, 1500 Hz) without footshock, and the freezing time was recorded. Contextual fear memory formation and the subsequent remote memory stabilization were evaluated by scoring freezing index (the absence of all but respiratory movement).

[2] = C1 10 mg/kg vs curcumin 50 mg/kg

## COc1ccccc1/C=C/C(=O)/C=C/c1ccccc1OC [Compound C1, 1,5-bis(2-methoxyphenyl)penta-1,4-dien-3-one]
[1]
  Tmax: 30 min
[1]; read-out: maximum concentration (Cmax) in the brain
  Cmax: 1310 ± 89 ng/g
3×Tg mice; 2.5 mg/kg oral 7 months
  percentage of time spent in the target quadrant, probe trial, vs vehicle: significantly increased
3×Tg mice; 5 mg/kg oral 7 months
  percentage of time spent in the target quadrant, probe trial, vs vehicle: significantly increased
3×Tg mice; 10 mg/kg oral 7 months
  distance traveled to find the hidden platform vs vehicle: significantly reduced
  percentage of time spent in the target quadrant, probe trial, vs vehicle: significantly increased
3×Tg mice; [2]
  target recognition compared with curcumin: much better improvement in target recognition than curcumin
5×FAD mice; 10 mg/kg oral daily 4 months, P<0.001
  freezing index (memory reconsolidation) vs vehicle: significant memory reconsolidation
5×FAD mice; [2]
  memory improvement compared with curcumin: better memory improvement than curcumin
